Data: paper PMC9939733 (The Journal of Biological Chemistry, 2023)
Residue numbers refer to the chain shown, from its start.

Columns and labels:
Assay type in all cases: biochemical
[1] = target: T1, R132H IDH1 (Homo sapiens, UniProt O75874, R132H); experiment: Absorbance assay (NADPH consumption), substrate turnover in the absence of 2OG; set-up: made in house; host or cells: Escherichia coli BL21(DE3) pLyS; settings: no 2OG; […] test compound, 0.03 μM R132H IDH1, 50 μM NADPH; 2OG = 100
Protocol: (§1) Compounds were dispensed using a CyBio SDW-CW CyBi-Well Simultaneous Pipettor and assay started using a ThermoFisher Multidrop Combi reagent dispenser.
(§2) Reactions were performed as technical quadruplicates.

[2] = target: T2, R140Q IDH2 (Homo sapiens, UniProt P48735, R140Q); experiment: Absorbance assay, variant activity in the presence of equimolar 2OG (inhibition screen); settings: 6.0 mM 2OG and 6.0 mM test compound, 0.03 μM R140Q IDH2, 50 μM NADPH
T2 construct: made in house; host or cells: Sf21 insect cells (cell pellets prepared at Evotec)
T2 sequence (P48735 40-452 R140Q): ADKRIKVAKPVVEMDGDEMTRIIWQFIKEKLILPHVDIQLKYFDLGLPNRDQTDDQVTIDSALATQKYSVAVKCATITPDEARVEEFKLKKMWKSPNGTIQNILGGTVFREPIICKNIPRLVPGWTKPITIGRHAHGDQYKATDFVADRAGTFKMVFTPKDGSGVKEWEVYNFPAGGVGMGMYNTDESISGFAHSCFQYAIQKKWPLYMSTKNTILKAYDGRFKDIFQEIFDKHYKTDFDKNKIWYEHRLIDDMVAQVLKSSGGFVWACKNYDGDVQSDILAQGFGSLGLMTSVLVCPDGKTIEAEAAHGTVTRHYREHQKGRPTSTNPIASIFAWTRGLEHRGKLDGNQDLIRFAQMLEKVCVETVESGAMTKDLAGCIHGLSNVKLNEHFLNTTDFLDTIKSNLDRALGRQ
Protocol: as §1, §2

[3] = target: T3, R172K IDH2 (Homo sapiens, UniProt P48735, R172K); experiment: as above; settings: 1.0 mM 2OG and 1.0 mM test compound, 0.03 μM R172K IDH2, 50 μM NADPH
T3 construct: made in house; host or cells: Sf21 insect cells (cell pellets prepared at Evotec)
T3 sequence (P48735 40-452 R172K): T2 sequence (P48735 40-452 R140Q) with Q101R, R133K
Protocol: as §1, §2

[4] = target: T1, R132H IDH1; experiment: as above; set-up: made in house; host or cells: Escherichia coli BL21(DE3) pLyS; settings: […] 2OG and […] test compound, 0.03 μM R132H IDH1, 50 μM NADPH
Protocol: as §1, §2

[5] = target: T4, WT IDH2 (Homo sapiens, UniProt P48735); experiment: Absorbance assay, substrate activity in the absence of DL-isocitrate; settings: no DL-isocitrate; […] test compound, 75 μM NADP+, 2.0 nM WT IDH2; compared to DL-isocitrate
T4 construct: made in house; host or cells: Sf21 insect cells (cell pellets prepared at Evotec)
T4 sequence (P48735 40-452): T2 sequence (P48735 40-452 R140Q) with Q101R
Protocol: as §1, §2

[6] = target: T5, WT IDH1 (Homo sapiens, UniProt O75874); experiment: as above; settings: no DL-isocitrate; […] test compound, 75 μM NADP+, 2.0 nM WT IDH1; compared to DL-isocitrate
T5 construct: made in house; host or cells: Escherichia coli BL21(DE3) pLyS
T5 sequence (O75874 whole entry): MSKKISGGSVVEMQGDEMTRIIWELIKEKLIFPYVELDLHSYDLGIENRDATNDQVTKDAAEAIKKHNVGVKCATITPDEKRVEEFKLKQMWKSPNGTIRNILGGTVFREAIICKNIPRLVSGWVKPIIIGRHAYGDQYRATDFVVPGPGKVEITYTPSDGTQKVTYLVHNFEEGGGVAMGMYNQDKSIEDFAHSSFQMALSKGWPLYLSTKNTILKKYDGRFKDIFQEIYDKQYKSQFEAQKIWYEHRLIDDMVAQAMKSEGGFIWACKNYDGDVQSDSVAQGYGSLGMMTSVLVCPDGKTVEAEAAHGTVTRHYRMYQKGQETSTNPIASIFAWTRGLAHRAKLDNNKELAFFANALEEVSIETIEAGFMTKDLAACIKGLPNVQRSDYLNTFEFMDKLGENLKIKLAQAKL
Protocol: as §1, §2

[7] = target: T2, R140Q IDH2; experiment: Absorbance assay (NADPH consumption), substrate turnover in the absence of 2OG; settings: no 2OG; 6.0 mM test compound, 0.03 μM R140Q IDH2, 50 μM NADPH; 2OG = 100
Protocol: as §1, §2

[8] = target: T3, R172K IDH2; experiment: as above; settings: no 2OG; 1.0 mM test compound, 0.03 μM R172K IDH2, 50 μM NADPH; 2OG = 100
Protocol: as §1, §2

[9] = target: T4, WT IDH2; experiment: Absorbance assay, WT activity in the presence of equimolar DL-isocitrate (inhibition); settings: […] isocitrate and […] test compound, 75 μM NADP+, 2.0 nM WT IDH2
Protocol: as §1, §2

[10] = target: T5, WT IDH1; experiment: as above; settings: […] isocitrate and […] test compound, 75 μM NADP+, 2.0 nM WT IDH1
Protocol: as §1, §2

T1 sequence (O75874 whole entry R132H): as the sequence (O75874 whole entry) above, with R132H counted along it

SMILES | activity [%] (%-substrate conversion after 20 min incubation) [1] | activity [%] (%-substrate conversion after 20 min incubation) [2] | activity [%] (%-substrate conversion after 20 min incubation) [3] | activity [%] (%-substrate conversion after 20 min incubation) [4] | activity [%] (%-substrate conversion after 20 min incubation) [5] | activity [%] (%-substrate conversion after 20 min incubation) [6] | activity [%] (%-substrate conversion after 20 min incubation) [7] | activity [%] (%-substrate conversion after 20 min incubation) [8] | activity [%] (%-substrate conversion after 20 min incubation) [9] | activity [%] (%-substrate conversion after 20 min incubation) [10]
CC(O)C(=O)O (racemic) [DL-lactic acid] | < 10% | 115 ± 9% | 100 ± 8% | 104 ± 8% | < 10% | < 10% | < 10% | < 10% | 95 ± 5% | 105 ± 6%
O=C(O)[C@@H]1CCCN1 [L-proline] | < 10% | 106 ± 2% | 98 ± 4% | 98 ± 1% | < 10% | < 10% | < 10% | < 10% | 98 ± 1% | 102 ± 1%
O=CC(=O)O [glyoxylic acid] | < 10% | 105 ± 6% | 99 ± 6% | 108 ± 5% | < 10% | < 10% | < 10% | < 10% | 99 ± 2% | 104 ± 2%
O=C(O)/C=C/C(=O)O [fumaric acid] | < 10% | 112 ± 13% | 87 ± 6% | 86 ± 3% | < 10% | < 10% | < 10% | < 10% | 97 ± 1% | 98 ± 1%
O=C(O)C(=O)C(=O)O [ketomalonic acid] | < 10% | – | 85 ± 12% | 79 ± 1% | < 10% | < 10% | < 10% | < 10% | 100 ± 2% | 102 ± 4%
CC(C)CC(=O)C(=O)O [α-ketoisocaproic acid] | < 10% | 106 ± 6% | 104 ± 2% | 99 ± 2% | – | – | < 10% | < 10% | 102 ± 4% | 102 ± 2%
N[C@@H](CCCC(=O)O)C(=O)O [L-2-aminoadipic acid] | < 10% | 82 ± 4% | 104 ± 1% | 104 ± 7% | – | – | < 10% | < 10% | 101 ± 5% | 108 ± 4%
COC(=O)CC(C)C(=O)OC (racemic) [DL-dimethyl 2-methylsuccinate] | < 10% | 116 ± 4% | 91 ± 4% | 104 ± 2% | – | – | < 10% | < 10% | 100 ± 2% | 103 ± 1%
O=C(O)CCC(O)C(=O)O (racemic) [DL-2-hydroglutaric acid] | < 10% | 98 ± 8% | 95 ± 4% | 89 ± 5% | – | – | < 10% | < 10% | 95 ± 3% | 94 ± 2%
COC(=O)CCC(=O)C(=O)OC [dimethyl 2-oxoglutaric acid] | < 10% | 124 ± 12% | 100 ± 9% | 95 ± 3% | – | – | < 10% | < 10% | 97 ± 2% | 98 ± 1%
CC[C@H](C)C(=O)C(=O)O [α-ketoisoleucine] | < 10% | 102 ± 5% | 94 ± 5% | 104 ± 2% | – | – | < 10% | < 10% | 98 ± 3% | 105 ± 4%
